Results taken from patent publication US8263757B2, “Promiscuous HER-2/Neu CD4 T cell epitopes” (Dendreon Corporation, priority 2006, dated 2012).

Tested on: T cell clone HER500.23c21
Assay: HLA-DR restriction: blocking anti-MHC class II antibodies in HERp270-284 stimulation of HER500.23c21 (IFNγ ELISA)
Format: cell-based, human
Details: antibody blocking with anti-HLA-DR and anti-HLA-DP/-DQ
Experimental: FIG. 3. HLA-DR Restriction. Autologous EBV-LcL at 2×10^5 cells/mL and HERp270-284 was used to stimulate the T cell clone HER500.23c21 (1×10^5 cells/well), with and without the addition of blocking anti-MHC class II antibodies. Anti-HLA-DR ♦ and anti-HLA-DQ/anti-HLA-DP ▪ were titrated at the concentrations shown in cRPMI+10% FBS. Wells also contained EBV-LcLs, HER500.23c21T cell clone and peptide (1 μg/mL). Assay was incubated for 48 hours at 37° C. with 5% CO2. Supernatants were harvested and frozen at −20° C. and at a later date, analyzed for IFNγ production using ELISA. Multiple experiments were performed, mean triplicate values for one representative experiment is shown.
HLA-DR Restriction and Promiscuity. To determine HLA-DR restriction of the T cell epitope HERp270-284, anti-HLA-DR mAb L243, HLA-DQ mAb 1a3 or HLA-DP mAb B7/21 (20-1.25 μg/mL) were cultured with T cell clone HER.23c21, peptide HERp270-284 and autologous EBV-LcL in cRPMI+10% FBS media. Supernatants were harvested after 48 hours and tested for IL-2 and IFNγ production. […]
In order to determine which HLA molecules were responsible for presenting HERp270-284 to HER500.23c21, HLA-blocking antibodies were used to inhibit presentation and T cell activation. […] T cell stimulation was determined by IFNγ production.

## ALVTYNTDTFESMPN (HER-2/Neu peptide 270-284, HER500 peptide #63, HERp270-284, HER-2/Neu epitope 270-284, residues 3-17 of SEQ ID NO1) [Peptide 63]
  HLA restriction of HER500.23c21 recognition: HLA-DR restricted
